Measured values published in ChEMBL document CHEMBL4406914, “Impact of Minor Structural Modifications on Properties of a Series of mTOR Inhibitors” (ACS Med Chem Lett, 2019).
≈ marks a conversion by molar mass, not a printed value. Calls of active or inactive are those of the source. The calls are words filed in the database; no cut-off is given here.

Tests used:
[1] = molecular target: mTORC2 (Homo sapiens, UniProt P42345); experiment: Inhibition of mTORC2 in human A431 cells assessed as AKT phosphorylation at S473 residue incubated for 3 hrs by HTRF assay; type: cell-based
[2] = Metabolic stability in human liver microsomes assessed as parent compound remaining at 1 uM measured at 15 mins in presence of phase 1 metabolism cofactors by LC-MS/MS analysis; type: ADME, Microsome; conditions: read-out: Stability
[3] = Kinetic aqueous solubility of compound in phosphate buffer at pH 7.4 at 100 uM at 20 degree C shaken for 24 hrs by HPLC analysis; type: physicochemical; conditions: read-out: Kinetic_solubility
[4] = molecular target: Serine/threonine-protein kinase mTOR (Homo sapiens, UniProt P42345); experiment: Inhibition of human recombinant GST-tagged mTOR catalytic domain (1360 to 2549 residues) expressed in baculovirus expression system using GFP-4E-BP1 peptide as substrate incubated for 1 hr by LanthaScreen assay
[5] = Hepatic intrinsic clearance in human Hepatocytes assessed per at 1 uM measured upto 90 mins by LC-MS/MS analysis; type: ADME, cell-based, Hepatocyte; conditions: 1.5 h
[6] = molecular target: T1, Phosphatidylinositol 4,5-bisphosphate 3-kinase catalytic subunit delta isoform (Homo sapiens) (UniProt O00329); experiment: Inhibition of wild-type human partial length PIK3CD (R108 to Q1044 residues) expressed in mammalian expression system at 10 uM by Kinomescan method
T1 sequence (whole entry): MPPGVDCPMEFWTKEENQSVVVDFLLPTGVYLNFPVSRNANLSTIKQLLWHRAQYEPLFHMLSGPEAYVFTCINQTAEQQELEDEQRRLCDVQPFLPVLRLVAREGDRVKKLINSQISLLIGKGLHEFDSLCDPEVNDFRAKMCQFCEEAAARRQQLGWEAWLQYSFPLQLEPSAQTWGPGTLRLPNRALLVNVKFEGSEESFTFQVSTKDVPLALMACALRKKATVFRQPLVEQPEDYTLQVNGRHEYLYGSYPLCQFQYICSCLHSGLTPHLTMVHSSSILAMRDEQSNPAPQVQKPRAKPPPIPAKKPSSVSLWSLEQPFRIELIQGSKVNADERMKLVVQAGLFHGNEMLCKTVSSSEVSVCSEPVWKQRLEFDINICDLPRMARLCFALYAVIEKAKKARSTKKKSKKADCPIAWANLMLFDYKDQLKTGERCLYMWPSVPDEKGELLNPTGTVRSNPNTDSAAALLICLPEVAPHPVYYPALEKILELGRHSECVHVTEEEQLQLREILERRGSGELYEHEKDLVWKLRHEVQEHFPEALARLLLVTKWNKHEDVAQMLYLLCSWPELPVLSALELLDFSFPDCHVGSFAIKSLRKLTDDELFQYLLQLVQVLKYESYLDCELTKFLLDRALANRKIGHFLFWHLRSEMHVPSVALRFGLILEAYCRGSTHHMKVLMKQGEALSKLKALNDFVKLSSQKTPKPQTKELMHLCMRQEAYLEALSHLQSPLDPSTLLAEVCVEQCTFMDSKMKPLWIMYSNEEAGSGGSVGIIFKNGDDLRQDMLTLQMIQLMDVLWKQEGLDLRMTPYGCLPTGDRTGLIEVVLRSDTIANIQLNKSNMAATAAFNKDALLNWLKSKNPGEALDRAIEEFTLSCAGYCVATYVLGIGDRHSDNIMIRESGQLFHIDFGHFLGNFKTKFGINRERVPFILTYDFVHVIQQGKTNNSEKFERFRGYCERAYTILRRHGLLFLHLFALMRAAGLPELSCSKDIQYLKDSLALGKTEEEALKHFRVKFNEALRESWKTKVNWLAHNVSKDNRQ

[7] = molecular target: Phosphatidylinositol 4-phosphate 3-kinase C2 domain-containing subunit beta (Homo sapiens) (UniProt O00750); experiment: Inhibition of wild-type human partial length PIK3C2B (M1 to L1634 residues) expressed in mammalian expression system at 10 uM by Kinomescan method
[8] = molecular target: Phosphatidylinositol 4,5-bisphosphate 3-kinase catalytic subunit gamma isoform (Homo sapiens) (UniProt P48736); experiment: Inhibition of wild-type human partial length PIK3CG (S144 to A1102 residues) expressed in mammalian expression system at 10 uM by Kinomescan method
[9] = molecular target: T2, Phosphatidylinositol 3-kinase C2 domain-containing subunit gamma (Homo sapiens) (UniProt O75747); experiment: Inhibition of wild-type human partial length PIK3C2G (M1 to I1446 residues) expressed in mammalian expression system at 10 uM by Kinomescan method
T2 sequence (whole entry): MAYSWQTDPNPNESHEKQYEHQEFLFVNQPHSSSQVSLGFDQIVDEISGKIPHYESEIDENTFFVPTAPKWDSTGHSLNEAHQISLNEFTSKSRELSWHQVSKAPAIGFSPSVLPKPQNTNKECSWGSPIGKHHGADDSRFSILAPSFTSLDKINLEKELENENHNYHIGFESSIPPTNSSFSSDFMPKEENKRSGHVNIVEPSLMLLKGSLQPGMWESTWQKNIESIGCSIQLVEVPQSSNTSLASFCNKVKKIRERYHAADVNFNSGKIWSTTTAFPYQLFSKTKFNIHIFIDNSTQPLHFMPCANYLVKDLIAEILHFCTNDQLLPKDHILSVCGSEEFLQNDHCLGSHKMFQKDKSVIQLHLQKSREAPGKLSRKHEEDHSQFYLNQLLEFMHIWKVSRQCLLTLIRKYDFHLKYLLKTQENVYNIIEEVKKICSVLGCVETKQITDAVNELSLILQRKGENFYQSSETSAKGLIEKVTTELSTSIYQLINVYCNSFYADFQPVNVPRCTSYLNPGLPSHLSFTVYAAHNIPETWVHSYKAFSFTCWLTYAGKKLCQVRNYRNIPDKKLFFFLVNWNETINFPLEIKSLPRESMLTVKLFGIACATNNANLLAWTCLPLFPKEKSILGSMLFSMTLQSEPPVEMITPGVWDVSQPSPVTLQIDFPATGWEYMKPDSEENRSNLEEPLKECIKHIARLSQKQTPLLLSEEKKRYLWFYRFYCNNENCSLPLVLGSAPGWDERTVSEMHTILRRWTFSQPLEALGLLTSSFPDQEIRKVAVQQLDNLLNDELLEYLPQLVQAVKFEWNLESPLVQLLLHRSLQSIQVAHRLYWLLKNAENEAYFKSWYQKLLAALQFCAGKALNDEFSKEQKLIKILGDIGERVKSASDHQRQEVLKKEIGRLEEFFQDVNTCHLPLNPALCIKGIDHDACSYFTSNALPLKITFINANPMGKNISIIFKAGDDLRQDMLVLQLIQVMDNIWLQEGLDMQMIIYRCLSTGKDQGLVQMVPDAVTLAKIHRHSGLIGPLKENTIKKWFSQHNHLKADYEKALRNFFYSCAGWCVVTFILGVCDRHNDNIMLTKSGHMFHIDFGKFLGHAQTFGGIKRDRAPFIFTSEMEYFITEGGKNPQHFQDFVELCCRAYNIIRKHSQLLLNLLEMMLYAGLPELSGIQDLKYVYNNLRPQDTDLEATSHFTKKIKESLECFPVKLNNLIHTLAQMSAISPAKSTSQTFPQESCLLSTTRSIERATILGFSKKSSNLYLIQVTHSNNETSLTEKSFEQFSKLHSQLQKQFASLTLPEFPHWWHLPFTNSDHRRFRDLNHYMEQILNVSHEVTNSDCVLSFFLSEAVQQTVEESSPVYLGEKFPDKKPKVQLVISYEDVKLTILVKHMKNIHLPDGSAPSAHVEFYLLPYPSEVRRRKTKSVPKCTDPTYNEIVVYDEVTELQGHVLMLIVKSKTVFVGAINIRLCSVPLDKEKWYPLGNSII

[10] = molecular target: Phosphatidylinositol 4,5-bisphosphate 3-kinase catalytic subunit alpha isoform (Homo sapiens, UniProt P42336)
Description: Inhibition of PI3Kalpha (unknown origin) using PIP2 as substrate measured after 30 mins by TR-FRET assay

[11] = molecular target: Phosphatidylinositol 4,5-bisphosphate 3-kinase catalytic subunit beta isoform (Homo sapiens) (UniProt P42338); experiment: Inhibition of wild-type human partial length PIK3CB (P118 to S1070 residues) expressed in mammalian expression system at 10 uM by Kinomescan method
[12] = molecular target: mTORC1 (Homo sapiens, UniProt P42345); experiment: Inhibition of mTORC1 in human A431 cells assessed as S6RP phosphorylation incubated for 3 hrs by HTRF assay; type: cell-based
[13] = Lipophilicity, ChromlogD of compound at 0.5 mM at pH 6.5 by UPLC-UV analysis; conditions: buffer, pH 6.5, 500 µM

Chain of Phosphatidylinositol 4,5-bisphosphate 3-kinase catalytic subunit alpha isoform (P42336 whole entry, the tested form may be a part, canonical isoform): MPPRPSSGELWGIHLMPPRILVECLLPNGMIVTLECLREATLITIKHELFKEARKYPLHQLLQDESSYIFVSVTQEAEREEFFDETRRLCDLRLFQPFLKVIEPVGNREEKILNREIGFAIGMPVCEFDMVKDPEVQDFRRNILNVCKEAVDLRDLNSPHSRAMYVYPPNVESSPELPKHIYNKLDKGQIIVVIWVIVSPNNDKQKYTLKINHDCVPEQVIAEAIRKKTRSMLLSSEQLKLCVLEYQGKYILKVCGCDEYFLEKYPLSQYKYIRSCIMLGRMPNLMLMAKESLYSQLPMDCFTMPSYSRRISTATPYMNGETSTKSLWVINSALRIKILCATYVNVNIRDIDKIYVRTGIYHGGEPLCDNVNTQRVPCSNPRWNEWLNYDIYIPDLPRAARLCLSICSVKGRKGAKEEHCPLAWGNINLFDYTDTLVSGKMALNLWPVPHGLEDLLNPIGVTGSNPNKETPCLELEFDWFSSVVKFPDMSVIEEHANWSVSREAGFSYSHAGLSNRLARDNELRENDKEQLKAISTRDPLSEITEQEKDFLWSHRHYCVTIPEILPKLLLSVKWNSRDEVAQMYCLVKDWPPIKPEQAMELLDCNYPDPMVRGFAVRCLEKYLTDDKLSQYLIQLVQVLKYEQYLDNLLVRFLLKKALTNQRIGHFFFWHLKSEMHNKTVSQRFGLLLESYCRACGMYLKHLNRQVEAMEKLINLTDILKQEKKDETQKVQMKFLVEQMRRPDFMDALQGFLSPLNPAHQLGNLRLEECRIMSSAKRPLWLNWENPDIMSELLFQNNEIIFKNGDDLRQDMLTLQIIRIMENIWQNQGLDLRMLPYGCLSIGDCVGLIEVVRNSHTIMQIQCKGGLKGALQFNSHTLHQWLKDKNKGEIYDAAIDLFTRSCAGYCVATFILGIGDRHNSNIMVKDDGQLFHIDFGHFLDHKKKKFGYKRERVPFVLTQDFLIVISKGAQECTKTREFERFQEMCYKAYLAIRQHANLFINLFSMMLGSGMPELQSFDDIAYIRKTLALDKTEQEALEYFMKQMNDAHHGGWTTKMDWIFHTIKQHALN
Chain of Phosphatidylinositol 4,5-bisphosphate 3-kinase catalytic subunit gamma isoform (Homo sapiens) (P48736 whole entry, looked up, the tested form may be a part, canonical isoform): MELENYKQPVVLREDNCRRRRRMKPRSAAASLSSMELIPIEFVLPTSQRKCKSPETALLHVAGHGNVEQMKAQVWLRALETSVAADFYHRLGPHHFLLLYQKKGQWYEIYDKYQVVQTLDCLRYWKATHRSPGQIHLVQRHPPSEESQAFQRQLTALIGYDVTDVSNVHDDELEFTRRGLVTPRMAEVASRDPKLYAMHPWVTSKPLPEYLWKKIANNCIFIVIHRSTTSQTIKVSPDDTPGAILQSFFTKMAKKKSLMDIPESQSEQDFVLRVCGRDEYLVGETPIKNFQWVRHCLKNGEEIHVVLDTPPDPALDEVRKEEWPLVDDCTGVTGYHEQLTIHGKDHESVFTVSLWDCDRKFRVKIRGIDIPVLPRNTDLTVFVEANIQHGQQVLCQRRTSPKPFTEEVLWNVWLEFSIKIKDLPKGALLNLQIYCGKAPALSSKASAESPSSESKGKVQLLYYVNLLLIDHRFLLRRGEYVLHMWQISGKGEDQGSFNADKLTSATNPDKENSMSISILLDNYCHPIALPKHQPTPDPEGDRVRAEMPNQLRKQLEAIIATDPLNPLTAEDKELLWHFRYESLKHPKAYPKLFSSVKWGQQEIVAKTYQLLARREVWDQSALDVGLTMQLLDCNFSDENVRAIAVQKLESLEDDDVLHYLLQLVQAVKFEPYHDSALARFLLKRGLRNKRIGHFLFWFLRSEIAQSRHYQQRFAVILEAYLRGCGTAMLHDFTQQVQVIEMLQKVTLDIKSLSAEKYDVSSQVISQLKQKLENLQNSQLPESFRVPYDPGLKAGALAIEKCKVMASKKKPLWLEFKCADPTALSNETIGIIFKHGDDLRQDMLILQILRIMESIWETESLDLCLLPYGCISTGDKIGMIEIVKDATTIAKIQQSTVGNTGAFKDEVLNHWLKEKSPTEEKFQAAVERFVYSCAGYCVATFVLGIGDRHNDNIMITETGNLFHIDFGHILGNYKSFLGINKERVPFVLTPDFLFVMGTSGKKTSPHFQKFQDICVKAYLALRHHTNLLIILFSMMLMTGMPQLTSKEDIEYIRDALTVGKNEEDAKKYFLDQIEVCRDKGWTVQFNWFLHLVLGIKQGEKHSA
Chain of Phosphatidylinositol 4,5-bisphosphate 3-kinase catalytic subunit beta isoform (Homo sapiens) (P42338 whole entry, looked up, the tested form may be a part, canonical isoform): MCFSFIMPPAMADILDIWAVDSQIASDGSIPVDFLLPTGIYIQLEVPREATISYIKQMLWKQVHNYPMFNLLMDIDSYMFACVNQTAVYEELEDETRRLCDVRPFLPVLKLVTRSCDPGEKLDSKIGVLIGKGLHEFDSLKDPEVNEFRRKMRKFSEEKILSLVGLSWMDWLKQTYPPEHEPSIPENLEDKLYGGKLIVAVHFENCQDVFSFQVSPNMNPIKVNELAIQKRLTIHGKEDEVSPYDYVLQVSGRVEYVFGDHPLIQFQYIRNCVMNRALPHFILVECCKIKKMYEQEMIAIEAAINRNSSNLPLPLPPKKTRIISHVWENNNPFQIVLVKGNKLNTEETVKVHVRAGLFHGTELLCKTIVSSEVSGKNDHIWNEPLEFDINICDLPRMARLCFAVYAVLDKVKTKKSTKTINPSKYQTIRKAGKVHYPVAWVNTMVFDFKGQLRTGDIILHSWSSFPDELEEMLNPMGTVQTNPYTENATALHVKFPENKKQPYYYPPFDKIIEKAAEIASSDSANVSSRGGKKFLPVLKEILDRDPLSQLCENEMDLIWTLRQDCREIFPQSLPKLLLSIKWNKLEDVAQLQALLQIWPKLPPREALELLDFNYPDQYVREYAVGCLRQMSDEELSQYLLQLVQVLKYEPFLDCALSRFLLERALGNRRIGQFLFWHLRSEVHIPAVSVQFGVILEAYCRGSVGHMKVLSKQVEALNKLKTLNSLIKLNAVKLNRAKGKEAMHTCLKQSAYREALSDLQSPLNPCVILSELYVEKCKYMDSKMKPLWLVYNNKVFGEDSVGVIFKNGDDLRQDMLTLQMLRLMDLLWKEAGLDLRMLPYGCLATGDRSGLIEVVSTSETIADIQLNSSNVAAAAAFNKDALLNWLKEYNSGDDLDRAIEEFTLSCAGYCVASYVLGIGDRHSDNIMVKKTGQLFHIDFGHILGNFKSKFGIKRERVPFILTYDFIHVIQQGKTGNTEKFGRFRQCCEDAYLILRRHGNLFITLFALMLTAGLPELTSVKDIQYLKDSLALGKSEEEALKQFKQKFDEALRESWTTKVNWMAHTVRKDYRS
Chain of Phosphatidylinositol 4-phosphate 3-kinase C2 domain-containing subunit beta (Homo sapiens) (O00750 whole entry, the tested form may be a part, canonical isoform): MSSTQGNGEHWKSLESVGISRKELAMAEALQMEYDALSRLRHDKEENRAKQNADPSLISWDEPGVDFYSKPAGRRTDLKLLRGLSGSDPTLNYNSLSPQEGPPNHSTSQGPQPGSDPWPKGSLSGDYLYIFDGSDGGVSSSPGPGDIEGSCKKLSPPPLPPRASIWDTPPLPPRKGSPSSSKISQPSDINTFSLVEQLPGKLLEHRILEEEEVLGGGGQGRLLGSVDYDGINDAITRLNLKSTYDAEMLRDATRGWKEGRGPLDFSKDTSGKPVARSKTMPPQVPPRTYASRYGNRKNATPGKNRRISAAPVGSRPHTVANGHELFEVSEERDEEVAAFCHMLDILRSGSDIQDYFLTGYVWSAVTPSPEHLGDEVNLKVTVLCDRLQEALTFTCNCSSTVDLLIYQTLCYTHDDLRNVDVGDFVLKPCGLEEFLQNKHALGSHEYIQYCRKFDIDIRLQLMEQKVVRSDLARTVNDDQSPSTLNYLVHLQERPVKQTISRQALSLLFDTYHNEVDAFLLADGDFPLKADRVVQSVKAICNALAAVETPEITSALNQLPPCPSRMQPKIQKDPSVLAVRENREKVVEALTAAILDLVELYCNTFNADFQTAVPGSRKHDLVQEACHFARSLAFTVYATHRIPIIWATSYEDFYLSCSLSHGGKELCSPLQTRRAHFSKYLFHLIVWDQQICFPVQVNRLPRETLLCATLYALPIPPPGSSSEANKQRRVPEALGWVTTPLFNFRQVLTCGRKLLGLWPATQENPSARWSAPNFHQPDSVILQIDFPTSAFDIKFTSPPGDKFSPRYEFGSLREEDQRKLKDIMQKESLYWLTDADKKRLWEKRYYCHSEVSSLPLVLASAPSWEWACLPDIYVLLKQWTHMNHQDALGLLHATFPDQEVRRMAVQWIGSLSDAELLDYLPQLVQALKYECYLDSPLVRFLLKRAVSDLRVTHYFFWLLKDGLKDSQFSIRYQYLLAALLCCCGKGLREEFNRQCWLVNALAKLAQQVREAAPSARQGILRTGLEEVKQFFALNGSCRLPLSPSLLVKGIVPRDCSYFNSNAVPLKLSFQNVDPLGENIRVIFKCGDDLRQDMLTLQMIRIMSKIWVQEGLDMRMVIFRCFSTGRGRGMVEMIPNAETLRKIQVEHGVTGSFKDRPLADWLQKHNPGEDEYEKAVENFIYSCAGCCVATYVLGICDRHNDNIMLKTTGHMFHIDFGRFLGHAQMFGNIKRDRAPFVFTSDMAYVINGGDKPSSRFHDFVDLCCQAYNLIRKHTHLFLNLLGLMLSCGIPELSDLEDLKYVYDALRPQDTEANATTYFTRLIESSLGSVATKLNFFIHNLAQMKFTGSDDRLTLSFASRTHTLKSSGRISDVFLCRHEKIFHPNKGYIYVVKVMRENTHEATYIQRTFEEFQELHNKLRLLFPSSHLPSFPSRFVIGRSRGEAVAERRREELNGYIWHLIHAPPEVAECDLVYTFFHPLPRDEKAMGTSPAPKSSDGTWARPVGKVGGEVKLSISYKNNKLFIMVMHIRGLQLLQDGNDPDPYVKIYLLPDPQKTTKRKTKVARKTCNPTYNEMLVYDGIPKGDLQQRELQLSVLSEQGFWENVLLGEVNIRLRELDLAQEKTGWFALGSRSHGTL

Q: With `CC(C)n1nc(-c2ccc3oc(N)nc3c2)c2c(=O)[nH]cnc21` as the molecule, how does the IC50 [1] read?
A: 130 nM

Q: What about the remaining at 0.25 h, 1 µM [2] of the same molecule?
A: > 95%

Q: And the solubility kinetic at 24 h, 100 µM [3]?
A: 3 µM (≈ 0.931 µg/mL)

Q: What about the Ki [4] of the same molecule?
A: 28 nM

Q: And the CLH [5]?
A: < 5 µL/min

Q: What about the inhibition [6] of the same molecule?
A: inactive

Q: And the inhibition [7]?
A: inactive

Q: What about the inhibition [8] of the same molecule?
A: inactive

Q: And the inhibition [9]?
A: inactive

Q: What about the Ki [10] of the same molecule?
A: > 10000 nM

Q: And the inhibition [11]?
A: inactive

Q: And the IC50 [12]?
A: 30 nM

Q: And the ChromlogD6.5 [13]?
A: 0.9
